Measurements: patent publication US9149051B2, “Dairy composition with high-potency sweetener” (THE COCA-COLA COMPANY, priority 2005, dated 2015)

assay: Rate of dissolution in H2O at 25° C. of rebaudioside A polymorph and amorphous forms; assay type: physicochemical; details: rating in words
Text: The purification of rebaudioside A by crystallization as described above results in the formation of at least three different polymorphs: Form 1: a rebaudioside A hydrate; Form 2: an anhydrous rebaudioside A; and Form 3: a rebaudioside A solvate. In addition to the at least three polymorph forms of rebaudioside A, the purification of rebaudioside A may result in the formation of an amorphous form of rebaudioside A, Form 4. The aqueous organic solution and temperature of the purification process influence the resulting polymorph and amorphous forms in the substantially pure rebaudioside A composition. FIGS. 1-5 are exemplary powder x-ray diffraction (XRPD) scans of the polymorph and amorphous forms of rebaudioside A: Form 1 (hydrate), Form 2 (anhydrate), Form 3A (methanol solvate), Form 3B (ethanol solvate), and Form 4 (amorphous), respectively.

Rate of dissolution in H2O at 25° C.	Substance
High	rebaudioside A [Form 3]
Intermediate	rebaudioside A [Form 2]
Very low	rebaudioside A [Form 1]
High	rebaudioside A [Form 4]
